Source: the NIST ThermoML archive (doi:10.1016/j.jct.2017.08.029)

Assay: wn = mass fraction of the nth substance listed
Conditions: 100 kPa, Liquid, Direct current cell with electrodes

C=CC[P+](c1ccccc1)(c1ccccc1)c1ccccc1.[Br-] [allyltriphenylphosphonium bromide] + OCCOCCO
electrical conductivity [S/m]
Conditions	293.15 K	303.15 K	313.15 K	323.15 K	333.15 K	343.15 K
w1 = 0.1842	0.0997	0.115	0.14	0.175	0.224	0.279
w1 = 0.2653	0.118	0.129	0.159	0.198	0.253	0.315
w1 = 0.4745	0.137	0.148	0.177	0.222	0.274	0.339

C=CC[P+](c1ccccc1)(c1ccccc1)c1ccccc1.[Br-] [allyltriphenylphosphonium bromide] + OCCOCCOCCO
electrical conductivity [S/m]
Conditions	293.15 K	303.15 K	313.15 K	323.15 K	333.15 K	343.15 K
w1 = 0.1375	0.037	0.0441	0.0643	0.0881	0.116	0.149
w1 = 0.2033	0.0477	0.0632	0.0905	0.118	0.155	0.208
w1 = 0.3895	0.067	0.0805	0.112	0.147	0.193	0.244
